Assay results as given in patent US9023789B2, “Amylin analogs and pharmaceutical compositions thereof” (Novo Nordisk A/S, priority 2012, dated 2015).
pEC50, pIC50: −log10 of the molar value. Numbered stars: 1 amine (or outer) side, 2 acyl side, 3 side chain; on linkers, the order of the positions; unused ones are H or OH. Bridge positions count the residues as written; N and C are the ends. Peptide text beside a SMILES is read from it. * marks the point of attachment. C20 diacid = O=C(O)CCCCCCCCCCCCCCCCCCC(=O)*; γGlu = O=C(O)[C@H](CCC(=O)[*:2])N[*:1]

How the values were obtained:
[1] = molecular target: T1, human amylin receptor (membranes from Amylin 3(a)/CRE-luc cells) (Homo sapiens, UniProt O60896+P30988); experiment: ASSAY (V) binding to the human amylin receptor (SPA, 125I-rat amylin); conditions: for pIC50: Table 4, read-out: hAmylin-R bind IC50;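 for all read-outs here: competition binding of cell membranes (35 ng/µL) mixed with SPA beads in 384-well plates at 40 µL total volume, read by scintillation counting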
T1 construct: expressed in transfected cells
T1 sequence (P30988 25-474): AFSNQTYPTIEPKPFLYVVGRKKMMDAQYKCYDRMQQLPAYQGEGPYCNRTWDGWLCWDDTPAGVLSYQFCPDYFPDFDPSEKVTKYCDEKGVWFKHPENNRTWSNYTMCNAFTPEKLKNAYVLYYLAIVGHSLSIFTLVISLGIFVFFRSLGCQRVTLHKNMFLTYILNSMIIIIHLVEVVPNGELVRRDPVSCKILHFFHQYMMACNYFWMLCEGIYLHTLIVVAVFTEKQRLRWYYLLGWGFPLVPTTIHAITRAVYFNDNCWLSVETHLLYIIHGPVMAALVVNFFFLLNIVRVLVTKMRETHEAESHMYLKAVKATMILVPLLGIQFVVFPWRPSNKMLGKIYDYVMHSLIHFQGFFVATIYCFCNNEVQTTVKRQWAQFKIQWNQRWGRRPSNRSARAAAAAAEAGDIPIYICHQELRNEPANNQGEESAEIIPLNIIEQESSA
T1 sequence (O60896 24-148 partner): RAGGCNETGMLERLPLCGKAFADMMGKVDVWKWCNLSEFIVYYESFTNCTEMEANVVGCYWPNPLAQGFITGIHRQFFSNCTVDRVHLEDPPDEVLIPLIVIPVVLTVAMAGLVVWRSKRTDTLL

rat calcitonin receptor = molecular target: T2, rat calcitonin receptor (Rattus norvegicus, UniProt P32214); experiment: ASSAY (VIII) binding to the rat calcitonin receptor; conditions: Table 7, read-out: rCTR bind IC50
T2 construct: expressed in transfected cells; host or cells: BHK tk'ts 13 (transient, FuGENE 6), membranes
T2 sequence (P32214 25-479 isoform P32214-2 limits assumed): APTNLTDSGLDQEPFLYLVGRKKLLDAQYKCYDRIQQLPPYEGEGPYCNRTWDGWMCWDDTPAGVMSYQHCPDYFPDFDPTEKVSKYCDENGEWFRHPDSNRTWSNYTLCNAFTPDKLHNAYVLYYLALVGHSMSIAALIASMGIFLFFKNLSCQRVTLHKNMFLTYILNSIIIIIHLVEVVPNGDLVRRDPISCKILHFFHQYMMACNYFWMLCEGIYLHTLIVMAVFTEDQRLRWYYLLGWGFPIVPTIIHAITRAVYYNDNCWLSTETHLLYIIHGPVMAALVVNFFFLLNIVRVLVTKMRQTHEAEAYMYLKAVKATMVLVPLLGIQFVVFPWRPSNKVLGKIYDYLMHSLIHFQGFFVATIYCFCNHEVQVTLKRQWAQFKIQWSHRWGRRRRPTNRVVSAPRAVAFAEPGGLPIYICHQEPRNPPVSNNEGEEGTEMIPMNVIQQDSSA
Method in brief: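 Rat calcitonin receptor is expressed transiently in BHK tk′ts 13 cells cultured in DMEM with 10% FBS. Roughly two days (approximately 48 hours) post-transfection, cells are harvested for membrane preparation.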

[2] = molecular target: T3, rat amylin receptor (rat calcitonin receptor + rat RAMP 3) (Rattus norvegicus, UniProt P32214+Q9JJ73); experiment: ASSAY (VI) binding to the rat amylin receptor; conditions: for pIC50: binding to rat amylin receptor, read-out: rAmylin-R bind IC50
T3 construct: expressed in transfected cells; host or cells: BHK tk'ts 13 (transient, FuGENE 6), membranes
T3 sequence (P32214 25-479 isoform P32214-2 limits assumed): T2 sequence (P32214 25-479 isoform P32214-2 limits assumed)
T3 sequence (Q9JJ73 23-147 partner): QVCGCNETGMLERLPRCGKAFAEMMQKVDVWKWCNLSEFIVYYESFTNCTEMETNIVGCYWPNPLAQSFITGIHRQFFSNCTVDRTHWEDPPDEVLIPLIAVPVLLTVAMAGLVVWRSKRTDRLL
Method in brief: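 Binding to the rat amylin receptor was determined with membrane preparations. The receptor was expressed by transiently transfecting BHK tk′ts 13 cells with rat calcitonin receptor, using FuGENE® 6 (Roche) according to the manufacturer's recommendations. Roughly 48 hours later the cells were harvested and their membranes isolated.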

[3] = molecular target: T4, human amylin 3(a) receptor (human calcitonin receptor + RAMP-3) in BHK570 cells (Homo sapiens, UniProt O60896+P30988); experiment: ASSAY (II)a functional assay, human amylin receptor (CRE luciferase); format: cell-based; conditions: for pEC50: human amylin receptor functional potency, assay (II), read-out: hAmylin-R funct. EC50
T4 construct: expressed in transfected cells
Method in brief: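 BHK cells stably carrying a CRE-luciferase reporter plus calcitonin receptor, or calcitonin receptor with RAMP-3 for the amylin 3(a) receptor, were seeded and kept overnight at 37° C. Compounds were added in assay medium with 10% FBS and 10 mM Hepes, pH 7.4, for 3 hours at 37° C, then luminescence was counted.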

[4] = molecular target: T5, human calcitonin receptor (Homo sapiens, UniProt P30988); experiment: ASSAY (VII) binding to the human calcitonin receptor (SPA, 125I-Calcitonin); conditions: read-out: hCTR bind IC50;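 note: cell membranes (35 ng/µL) combined with SPA beads in 40 µL of pH 7.4 Hepes buffer, 384-well format, signal counted on a TopCounter instrument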
T5 construct: expressed in transfected cells
T5 sequence (P30988 25-474): T1 sequence (P30988 25-474)

[5] = molecular target: T6, human calcitonin (a) receptor in BHK570 cells (Homo sapiens, UniProt P30988); experiment: ASSAY (II)a functional assay, human calcitonin receptor (CRE luciferase); format: cell-based; conditions: read-out: hCTR funct. EC50
T6 construct: expressed in transfected cells
T6 sequence (P30988 25-474): T1 sequence (P30988 25-474)
Source text: 1. Luciferase Assay Outline
Activation of calcitonin and amylin (coexpression of calcitonin receptor and receptor activity modifying proteins (RAMP)) receptors lead to increased intracellular concentrations of cAMP. Consequently, transcription is activated by promoters containing multiple copies of the cAMP response element (CRE). It is thus possible to measure amylin activity by the use of a CRE luciferase reporter gene introduced into BHK cells also expressing calcitonin or amylin receptors.
2. Construction of Calcitonin (a)- and Amylin 3(a)-Receptor/CRE-Luc Cell Line.
The cell line was further transfected with RAMP-3, using standard methods. This turns the calcitonin receptor into an amylin 3(a) receptor. Methotrexate, Neomycin, and Hygromycin are selection markers for luciferase, the calcitonin receptor, and RAMP-3, respectively.
To perform activity assays, BHK calcitonin (a) receptor- or amylin 3(a)-receptor/CRE-luc cells were seeded in white 96 well culture plates at a density of about 20.000 cells/well. […] After incubation overnight at 37° C. and 5% CO2, the growth medium was replaced by 50 μl/well assay medium (DMEM (without phenol red), Glutamax™, 10% FBS, and 10 mM Hepes, pH 7.4). Further, 50 μl/well of standard or sample in assay buffer were added. After 3 hours incubation at 37° C. and 5% CO2, the assay medium with standard or sample were removed and replaced by 100 μl/well PBS. Further, 100 μl/well LucLite™ was added. The plates were sealed and incubated at room temperature for 30 minutes. Finally, luminescence was measured on a TopCounter (Packard) in SPC (single photon counting) mode.

[6] = Table 5, selectivity, hCTR bind IC50 / hAmylin-R bind IC50
[7] = Table 5a, selectivity, hCTR bind IC50 / hAmylin-R bind IC50
[8] = Table 5b, selectivity, hCTR bind IC50 / hAmylin-R bind IC50
[9] = Table 7, human binding selectivity, included for comparison
[10] = Table 7a (preferred compounds), human binding selectivity, included for comparison
[11] = ratio of human calcitonin receptor binding IC50 to human amylin receptor binding IC50
[12] = Table 7, rat binding selectivity, rCTR IC50 / rAmylin-R IC50
[13] = Table 7a (preferred compounds), rat binding selectivity, rCTR IC50 / rAmylin-R IC50
[14] = ratio of rCTR bind IC50 to rAmylin-R bind IC50
[15] = hCTR funct. EC50 over hAmylin-R funct. EC50
[16] = human functional selectivity: hCTR funct. EC50 / hAmylin-R funct. EC50

SMILES | pIC50 [1] | Ratio hCT/hAmylin binding [1, 6] | Ratio hCT/hAmylin binding [1, 7] | Ratio hCT/hAmylin binding [1, 8] | Ratio hCT/hAmylin binding ([1]; Table 5c, selectivity, hCTR bind IC50 / hAmylin-R bind IC50) | Ratio hCT/hAmylin binding [1, 9] | Ratio hCT/hAmylin binding [1, 10] | Ratio hCT/hAmylin binding [1, 11] | pIC50 (rat calcitonin receptor) | pIC50 ([2]; Table 7) | Ratio rCT/rAmylin binding [2, 12] | Ratio rCT/rAmylin binding [2, 13] | Ratio rCT/rAmylin binding [2, 14] | Ratio hCT/hAmylin funct. [3, 15] | pEC50 [3] | Ratio hCT/hAmylin funct. [3, 16] | pIC50 [4] | pEC50 [5]
CC[C@H](C)[C@H](NC(=O)[C@@H]1CCCN1C(=O)CNC(=O)[C@H](Cc1ccccc1)NC(=O)[C@H](CC(N)=O)NC(=O)[C@@H]1CCCN1C(=O)[C@H](CO)NC(=O)[C@H](CO)NC(=O)[C@H](Cc1c[nH]cn1)NC(=O)[C@H](CCCNC(=N)N)NC(=O)[C@H](CC(C)C)NC(=O)[C@H](Cc1ccccc1)NC(=O)[C@H](CCC(=O)O)NC(=O)[C@H](C)NC(=O)[C@H](CC(C)C)NC(=O)[C@H](CCCNC(=N)N)NC(=O)[C@H](CCC(N)=O)NC(=O)[C@@H](NC(=O)[C@H](C)NC(=O)[C@@H]1CSSC[C@H](NC(=O)[C@H](CCCCN)NC(=O)CC[C@H](NC(=O)CCCCCCCCCCCCCCCCCCC(=O)O)C(=O)O)C(=O)N[C@@H](CC(N)=O)C(=O)N[C@@H]([C@@H](C)O)C(=O)N[C@@H](C)C(=O)N[C@@H]([C@@H](C)O)C(=O)N1)[C@@H](C)O)C(=O)N[C@@H](CC(C)C)C(=O)N1CCC[C@H]1C(=O)N1CCC[C@H]1C(=O)N[C@H](C(=O)N[C@@H](CC(N)=O)C(=O)N[C@H](C(=O)NCC(=O)N[C@@H](CO)C(=O)N[C@@H](CC(N)=O)C(=O)N[C@H](C(=O)N[C@@H](Cc1ccc(O)cc1)C(N)=O)[C@@H](C)O)C(C)C)[C@@H](C)O [Example 6] ({C20 diacid-γGlu}-KCNTATCATQRLAEFLRHSSPNFGPILPPTNVGSNTY-NH2; disulfide 2-7) | 9.00 | 20.0 | 20.0 | 20.0 | 20.0 | 20.0 | 20.0 | 20.0 | 7.29 | 8.62 | 21.7 | 21.7 | 21.7 | 5.7 | 9.89 | 5.7 | 7.70 | 9.14
CC(C)C[C@H](NC(=O)[C@H](CCCNC(=N)N)NC(=O)[C@H](CCC(N)=O)NC(=O)[C@@H](NC(=O)[C@H](C)NC(=O)[C@@H]1CSSC[C@H](NC(=O)[C@H](CCCCN)NC(=O)CC[C@H](NC(=O)CCCCCCCCCCCCCCCCCCC(=O)O)C(=O)O)C(=O)N[C@@H](CC(N)=O)C(=O)N[C@@H]([C@@H](C)O)C(=O)N[C@@H](C)C(=O)N[C@@H]([C@@H](C)O)C(=O)N1)[C@@H](C)O)C(=O)N[C@@H](C)C(=O)N[C@@H](CCC(=O)O)C(=O)N[C@@H](Cc1ccccc1)C(=O)N[C@@H](CC(C)C)C(=O)N[C@@H](CCCNC(=N)N)C(=O)N[C@@H](Cc1c[nH]cn1)C(=O)N[C@@H](CO)C(=O)N[C@@H](CO)C(=O)N1CCC[C@H]1C(=O)N[C@@H](CC(N)=O)C(=O)N[C@@H](Cc1ccccc1)C(=O)NCC(=O)N[C@@H](C)C(=O)N1CCC[C@H]1C(=O)N[C@@H](CC(C)C)C(=O)N[C@@H](CO)C(=O)N[C@@H](CO)C(=O)N[C@H](C(=O)N[C@@H](CC(N)=O)C(=O)N[C@H](C(=O)NCC(=O)N[C@@H](CO)C(=O)N[C@@H](CC(N)=O)C(=O)N[C@H](C(=O)N[C@@H](Cc1ccc(O)cc1)C(N)=O)[C@@H](C)O)C(C)C)[C@@H](C)O [Example 7] ({C20 diacid-γGlu}-KCNTATCATQRLAEFLRHSSPNFGAPLSSTNVGSNTY-NH2; disulfide 2-7) | 9.17 | 16.5 | 16.5 | 16.5 | – | 16.5 | 16.5 | 16.5 | 7.33 | 8.95 | 42.0 | 42.0 | 42.0 | 4.5 | 9.59 | 4.5 | 7.95 | 8.94
